System: 521955-158-R2-J5-PDC complex spheroid growth, % test/control
Assay: Anticancer human tumor 521955-158-R2-J5-PDC patient-derived pancreatic carcinoma cell line growth inhibition [Asc]
Conditions: for IC50: curve of first compound; for viability, T/C: stronger effect = lower value
Procedure, shortened: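 Tumor cells were grown as complex spheroids with human endothelial cells (HUVEC) and human mesenchymal stem cells as stroma. Agents were tested alone and in combination, in half-log steps down from the clinical Cmax, or from 10 microM where Cmax was unknown.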

[1] = second compound 0.1 µM, first compound 0.0316 µM
[2] = second compound 0.1 µM, first compound 0.1 µM
[3] = second compound 0.1 µM, first compound 0.316 µM
[4] = second compound 0.1 µM, first compound 1 µM
[5] = second compound 0.1 µM, first compound 3.16 µM
[6] = second compound 0.1 µM, first compound 10 µM
[7] = second compound 0.316 µM, first compound 0.0316 µM
[8] = second compound 0.316 µM, first compound 0.1 µM
[9] = second compound 0.316 µM, first compound 0.316 µM
[10] = second compound 0.316 µM, first compound 1 µM
[11] = second compound 0.316 µM, first compound 3.16 µM
[12] = second compound 0.316 µM, first compound 10 µM
[13] = second compound 1 µM, first compound 0.0316 µM
[14] = second compound 1 µM, first compound 0.1 µM
[15] = second compound 1 µM, first compound 0.316 µM
[16] = second compound 1 µM, first compound 1 µM
[17] = second compound 1 µM, first compound 3.16 µM
[18] = second compound 1 µM, first compound 10 µM
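Further: spheroids exposed to agents for 7 days before readout.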
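Wherever viability, T/C is given: 100% = DMSO vehicle control viability.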

IC50 (second compound 0.1 µM) [µM]	IC50 (second compound 0.316 µM) [µM]	IC50 (second compound 1 µM) [µM]	Structure (SMILES)	viability, T/C [1] [%]	viability, T/C [2] [%]	viability, T/C [3] [%]	viability, T/C [4] [%]	viability, T/C [5] [%]	viability, T/C [6] [%]	viability, T/C [7] [%]	viability, T/C [8] [%]	viability, T/C [9] [%]	viability, T/C [10] [%]	viability, T/C [11] [%]	viability, T/C [12] [%]	viability, T/C [13] [%]	viability, T/C [14] [%]	viability, T/C [15] [%]	viability, T/C [16] [%]	viability, T/C [17] [%]	further results
> 10	> 10	> 10	C=CC(=O)N1CCN(c2nc(=O)n(-c3c(C)ccnc3C(C)C)c3nc(-c4c(O)cccc4F)c(F)cc23)C(C)C1 (stereo not given) + CNC(C)C(=O)NC1CN(S(=O)(=O)c2cccc(S(=O)(=O)N3CCC4CCC(C(=O)NC(c5ccccc5)c5ccccc5)N4C(=O)C(NC(=O)C(C)NC)C3)c2)CCC2CCC(C(=O)NC(c3ccccc3)c3ccccc3)N2C1=O	91.8	111	105	119	97.4	89.1	104	100	97.3	98.2	106	95.2	115	98.3	102	109	113	IC50 (second compound 0.01 µM): > 10 µM; IC50 (second compound 0.0316 µM): > 10 µM; viability, T/C (second compound 0.01 µM, first compound 0.0316 µM): 91.1%; viability, T/C (second compound 0.01 µM, first compound 0.1 µM): 105%; viability, T/C (second compound 0.01 µM, first compound 0.316 µM): 111%; viability, T/C (second compound 0.01 µM, first compound 1 µM): 118%; viability, T/C (second compound 0.01 µM, first compound 3.16 µM): 119%; viability, T/C (second compound 0.01 µM, first compound 10 µM): 88.2%; viability, T/C (second compound 0.0316 µM, first compound 0.0316 µM): 108%; viability, T/C (second compound 0.0316 µM, first compound 0.1 µM): 93.1%; viability, T/C (second compound 0.0316 µM, first compound 0.316 µM): 103%; viability, T/C (second compound 0.0316 µM, first compound 1 µM): 94.8%; viability, T/C (second compound 0.0316 µM, first compound 3.16 µM): 115%; viability, T/C (second compound 0.0316 µM, first compound 10 µM): 96.7%; viability, T/C [18]: 88.3%
4.85	4.94	5.24	C=C(F)C(=O)N1CCN(c2nc(OCC3CCCN3C)nc3c2CCN(c2cccc4cccc(Cl)c24)C3)CC1CC#N (stereo not given) + Cc1c(S(C)(=O)=O)c(-c2cc(F)cc(N3CCN(c4ccc(NS(=O)(=O)c5ccc(NC(CCN6CCC(C(=O)OCCCP(=O)(O)O)CC6)CSc6ccccc6)c(S(=O)(=O)C(F)(F)F)c5)cc4)CC3)c2)c(-c2ccc(Cl)cc2)n1C(C)C	64.6	69.9	55.4	105	101	0.26	69	76.6	81.7	84.3	95.5	0.21	105	82.9	69.2	80.8	106	IC50 (second compound 3.16 µM): 5.01 µM; IC50 (second compound 10 µM): 6.66 µM; viability, T/C [18]: 0.21%; viability, T/C (second compound 3.16 µM, first compound 0.0316 µM): 62.4%; viability, T/C (second compound 3.16 µM, first compound 0.1 µM): 80.9%; viability, T/C (second compound 3.16 µM, first compound 0.316 µM): 69.5%; viability, T/C (second compound 3.16 µM, first compound 1 µM): 104%; viability, T/C (second compound 3.16 µM, first compound 3.16 µM): 99.2%; viability, T/C (second compound 3.16 µM, first compound 10 µM): 0.23%; viability, T/C (second compound 10 µM, first compound 0.0316 µM): 190%; viability, T/C (second compound 10 µM, first compound 0.1 µM): 168%; viability, T/C (second compound 10 µM, first compound 0.316 µM): 195%; viability, T/C (second compound 10 µM, first compound 1 µM): 188%; viability, T/C (second compound 10 µM, first compound 3.16 µM): 138%; viability, T/C (second compound 10 µM, first compound 10 µM): 2.12%

Reference: PubChem BioAssay AID1963430 (Molecular Pharmacology Branch, DTP, NCI, 2024)
